Reference: patent US7919493B2, “Anititumoral ecteinascidin derivatives” (Pharma Mar, S.A., priority 2001, dated 2011)
Values after ≈ are worked out from the molar mass of the structure shown.

How the values were obtained:
Type in all cases: cell-based
[1] = system: P-388 (suspension culture of a lymphoid neoplasm from DBA/2 mouse); assay: Cytotoxic activity screening, P-388 cells; details: Mus musculus, P388, 72 h, three days of incubation, approximate IC50 vs control growth
Experimental: (§1) Cell Cultures. Cells were maintained in logarithmic phase of growth in Eagle's Minimum Essential Medium, with Earle's Balanced Salts, with 2.0 mM L-glutamine, with non-essential amino acids, without sodium bicarbonate (EMEM/neaa); supplemented with 10% Fetal Calf Serum (FCS), 10^−2 M sodium bicarbonate and 0.1 g/l penicillin-G+streptomycin sulfate.
(§2) A simple screening procedure has been carried out to determine and compare the antitumour activity of these compounds, using an adapted form of the method described by Bergeron et al (1984). The tumour cell line employed have been P-388 (suspension culture of a lymphoid neoplasm from DBA/2 mouse), A-549 (monolayer culture of a human lung carcinoma), HT-29 (monolayer culture of a human colon carcinoma) and MEL-28 (monolayer culture of a human melanoma).
P-388 cell were seeded into 16 mm wells at 1×10^4 cells per well in 1 ml aliquots of MEM 5FCS containing the indicated concentration of drug. A separate set of cultures without drug was seeded as control growth to ensure that cells remained in exponential phase of growth. All determinations were carried out in duplicate.

[2] = system: A-549 (monolayer culture of a human lung carcinoma); assay: Cytotoxic activity screening, A-549 cells; details: Homo sapiens, A549, 72 h, three days of incubation, Crystal Violet, approximate IC50
Experimental: as §1
(§3) A separate set of cultures without drug was seeded as control growth to ensure that cells remained in exponential phase of growth. All determinations were carried out in duplicate. After three days of incubation at 37° C., 10% CO2 in a 98% humid atmosphere, the wells were stained with 0.1% Crystal Violet. An approximately IC50 was determined by comparing the growth in wells with drug to the growth in wells control.

[3] = system: HT-29 (monolayer culture of a human colon carcinoma); assay: Cytotoxic activity screening, HT-29 cells; details: Homo sapiens, HT-29, 72 h, three days of incubation, Crystal Violet, approximate IC50
Experimental: as §1, §3

[4] = system: MEL-28 (monolayer culture of a human melanoma); assay: Cytotoxic activity screening, MEL-28 cells; details: Homo sapiens, SK-MEL-28, 72 h, three days of incubation, Crystal Violet, approximate IC50
Experimental: as §1, §2
as §3, with “A-549, HT-29 and MEL-28 were seeded into 16 mm wells at 2×10^4 cells per well in 1 ml aliquots of MEM 10FCS containing the indicated concentration of drug. A separate” for “A separate”

DU-145 = assay: Cytotoxic activity screening, DU-145 cells; details: Homo sapiens, DU-145, DU-145 cells
Experimental: [The source words this procedure for another cell line and reports this cell line under the same test.] as §1, §2
Examples of biological activities of the compounds described in the present application are in Table IV (IC50 (ng/mL)) on the following pages.

Structure (SMILES)	IC50 [1] [ng/mL]	IC50 [2] [ng/mL]	IC50 [3] [ng/mL]	IC50 [4] [ng/mL]	IC50 (DU-145) [ng/mL]
COc1c(C)cc2c(c1O)[C@@H]1C3[C@@H]4SC[C@H](NC(=O)C(NC(=O)/C=C/c5ccccc5)C(C)C)C(=O)OC[C@@H](c5c6c(c(C)c(OC(C)=O)c54)OCO6)N3[C@@H](C#N)[C@H](C2)N1C (stereo partly drawn) [Compound 3r]	1 (≈ 1.17 nM)	1 (≈ 1.17 nM)	1 (≈ 1.17 nM)	1 (≈ 1.17 nM)	1 (≈ 1.17 nM)
COc1c(C)cc2c(c1O)[C@@H]1C3[C@@H]4SC[C@H](NC(=O)C(NC(=O)C(C)N)C(C)C)C(=O)OC[C@@H](c5c6c(c(C)c(OC(C)=O)c54)OCO6)N3[C@@H](C#N)[C@H](C2)N1C (stereo partly drawn) [Compound 3s]	1 (≈ 1.26 nM)	1 (≈ 1.26 nM)	1 (≈ 1.26 nM)	1 (≈ 1.26 nM)	1 (≈ 1.26 nM)
COc1c(C)cc2c(c1O)[C@@H]1C3[C@@H]4SC[C@H](NC(=O)C(NC(=O)C(C)NC(C)=O)C(C)C)C(=O)OC[C@@H](c5c6c(c(C)c(OC(C)=O)c54)OCO6)N3[C@@H](C#N)[C@H](C2)N1C (stereo partly drawn) [Compound 3t]	10 (≈ 12 nM)	10 (≈ 12 nM)	10 (≈ 12 nM)	10 (≈ 12 nM)	10 (≈ 12 nM)
COc1c(C)cc2c(c1O)[C@@H]1C3[C@@H]4SC[C@H](NC(=O)C(NC(=O)C(C)NC(=O)/C=C/c5ccccc5)C(C)C)C(=O)OC[C@@H](c5c6c(c(C)c(OC(C)=O)c54)OCO6)N3[C@@H](C#N)[C@H](C2)N1C (stereo partly drawn) [Compound 3u]	5 (≈ 5.42 nM)	5 (≈ 5.42 nM)	1 (≈ 1.08 nM)	1 (≈ 1.08 nM)	1 (≈ 1.08 nM)
COc1c(C)cc2c(c1O)[C@@H]1C3[C@@H]4SC[C@H](NC(=O)C(C)N)C(=O)OC[C@@H](c5c6c(c(C)c(OC(C)=O)c54)OCO6)N3[C@@H](C#N)[C@H](C2)N1C (stereo partly drawn) [Compound 3v]	1 (≈ 1.44 nM)	1 (≈ 1.44 nM)	1 (≈ 1.44 nM)	1 (≈ 1.44 nM)	1 (≈ 1.44 nM)
COc1c(C)cc2c(c1O)[C@@H]1C3[C@@H]4SC[C@H](NC(=O)C(C)NC(C)=O)C(=O)OC[C@@H](c5c6c(c(C)c(OC(C)=O)c54)OCO6)N3[C@@H](C#N)[C@H](C2)N1C (stereo partly drawn) [Compound 3w]	1 (≈ 1.36 nM)	1 (≈ 1.36 nM)	1 (≈ 1.36 nM)	1 (≈ 1.36 nM)	1 (≈ 1.36 nM)
COc1c(C)cc2c(c1O)[C@@H]1C3[C@@H]4SC[C@H](NC(=O)C(C)NC(=O)/C=C/c5ccccc5)C(=O)OC[C@@H](c5c6c(c(C)c(OC(C)=O)c54)OCO6)N3[C@@H](C#N)[C@H](C2)N1C (stereo partly drawn) [Compound 3x]	0.1 (≈ 0.121 nM)	0.1 (≈ 0.121 nM)	0.1 (≈ 0.121 nM)	0.1 (≈ 0.121 nM)	0.1 (≈ 0.121 nM)
COc1c(C)cc2c(c1O)[C@@H]1C3[C@@H]4SC[C@@H](NC(C)=O)C(=O)OC[C@@H](c5c6c(c(C)c(OC(C)=O)c54)OCO6)N3[C@@H](O)[C@H](C2)N1C (stereo partly drawn) [Compound 4a]	0.1 (≈ 0.153 nM)	0.5 (≈ 0.763 nM)	0.1 (≈ 0.153 nM)	0.5 (≈ 0.763 nM)	0.1 (≈ 0.153 nM)
CCCC(=O)N[C@H]1CS[C@@H]2c3c(OC(C)=O)c(C)c4c(c3[C@H](COC1=O)N1C2[C@H]2c3c(cc(C)c(OC)c3O)C[C@@H]([C@@H]1O)N2C)OCO4 (stereo partly drawn) [Compound 4c]	0.1 (≈ 0.146 nM)	0.1 (≈ 0.146 nM)	0.1 (≈ 0.146 nM)	0.1 (≈ 0.146 nM)	0.1 (≈ 0.146 nM)
COc1c(C)cc2c(c1O)[C@@H]1C3[C@@H]4SC[C@H](NC(=O)CC(C)C)C(=O)OC[C@@H](c5c6c(c(C)c(OC(C)=O)c54)OCO6)N3[C@@H](O)[C@H](C2)N1C (stereo partly drawn) [Compound 4d]	0.5 (≈ 0.717 nM)	0.5 (≈ 0.717 nM)	0.5 (≈ 0.717 nM)	0.5 (≈ 0.717 nM)	0.5 (≈ 0.717 nM)
CCCCCCCC(=O)N[C@H]1CS[C@@H]2c3c(OC(C)=O)c(C)c4c(c3[C@H](COC1=O)N1C2[C@H]2c3c(cc(C)c(OC)c3O)C[C@@H]([C@@H]1O)N2C)OCO4 (stereo partly drawn) [Compound 4e]	1 (≈ 1.35 nM)	1 (≈ 1.35 nM)	1 (≈ 1.35 nM)	1 (≈ 1.35 nM)	1 (≈ 1.35 nM)
CCCCCCCCCCCCCCCC(=O)N[C@H]1CS[C@@H]2c3c(OC(C)=O)c(C)c4c(c3[C@H](COC1=O)N1C2[C@H]2c3c(cc(C)c(OC)c3O)C[C@@H]([C@@H]1O)N2C)OCO4 (stereo partly drawn) [Compound 4f]	100 (≈ 117 nM)	100 (≈ 117 nM)	100 (≈ 117 nM)	100 (≈ 117 nM)	100 (≈ 117 nM)
